Where two headings read alike, the source gives them in different places. Where a SMILES comes first, the peptide text is derived from it. Side-chain parts run from the residue outwards. [ ]: non-standard residue; d: D form. The star is where a group is joined. Nicotinoyl = O=C(c1cccnc1)*; Nle = CCCC[C@H](N)C(=O)O; Cbz = O=C(OCc1ccccc1)*
Columns and labels:
[1] = target: AT4 receptor; assay: Competition for [125I]Ang IV binding on prefrontal cortical brain sections (in vitro receptor autoradiography); design: species or system Macaca fascicularis; conditions: for IC50: monkey prefrontal cortical sections, read-out: IC50 for competing for [125I]Ang IV binding; for Competition for [125I]Ang IV binding: even at concentrations of 10 mM
[2] = test system: embryonic chicken sympathetic neurons
[3] = test system: AT4 receptor sites; assay: Cross-displacement of [125I]LVV-haemorphin-7 and [125I]Ang IV binding on sheep hindbrain sections
Method: Sheep hindbrain sections were used to compare the distribution of ^125I-LVV-haemorphin-7 binding and AT4 receptor sites. Sections at 10 μm thickness were equilibrated to 22° C. (30 min), and then preincubated for 30 min in an isotonic buffer containing 50 mM Tris, 150 mM sodium chloride, 5 mM EDTA, 100 μM phenylmethylsulfonyl fluoride, 20 μM bestatin and 0.1% bovine serum albumin, pH 7.4, before a further 2 h incubation in the same buffer containing 2.84 μCi of [^125I]LVV-haemorphin-7 or [125I]Ang IV (approximately 140 pM). The binding of the radioligands was cross-displaced with either 1 μM unlabelled LVV-haemorphin-7 or Ang IV. After incubation, the sections were given three 2 min washes in buffer at 4° C., and exposed to X-ray film for 14 to 28 d.

[4] = test system: AT4 receptor; conditions: literature; mediated via the AT4 receptor; cited from earlier work
[5] = target: T1, embryonic chicken Ang IV binding site (AT4 receptor) (Gallus gallus, UniProt F1NNE7); assay: Competition for [125I]Ang IV binding to E13 chicken chorioallantoic membranes; conditions: for Concentration at which only 50% of the [125I]Ang IV sites were competed for: E13 chicken CAM, only 50% of the sites
T1 sequence (F1NNE7 1-1024): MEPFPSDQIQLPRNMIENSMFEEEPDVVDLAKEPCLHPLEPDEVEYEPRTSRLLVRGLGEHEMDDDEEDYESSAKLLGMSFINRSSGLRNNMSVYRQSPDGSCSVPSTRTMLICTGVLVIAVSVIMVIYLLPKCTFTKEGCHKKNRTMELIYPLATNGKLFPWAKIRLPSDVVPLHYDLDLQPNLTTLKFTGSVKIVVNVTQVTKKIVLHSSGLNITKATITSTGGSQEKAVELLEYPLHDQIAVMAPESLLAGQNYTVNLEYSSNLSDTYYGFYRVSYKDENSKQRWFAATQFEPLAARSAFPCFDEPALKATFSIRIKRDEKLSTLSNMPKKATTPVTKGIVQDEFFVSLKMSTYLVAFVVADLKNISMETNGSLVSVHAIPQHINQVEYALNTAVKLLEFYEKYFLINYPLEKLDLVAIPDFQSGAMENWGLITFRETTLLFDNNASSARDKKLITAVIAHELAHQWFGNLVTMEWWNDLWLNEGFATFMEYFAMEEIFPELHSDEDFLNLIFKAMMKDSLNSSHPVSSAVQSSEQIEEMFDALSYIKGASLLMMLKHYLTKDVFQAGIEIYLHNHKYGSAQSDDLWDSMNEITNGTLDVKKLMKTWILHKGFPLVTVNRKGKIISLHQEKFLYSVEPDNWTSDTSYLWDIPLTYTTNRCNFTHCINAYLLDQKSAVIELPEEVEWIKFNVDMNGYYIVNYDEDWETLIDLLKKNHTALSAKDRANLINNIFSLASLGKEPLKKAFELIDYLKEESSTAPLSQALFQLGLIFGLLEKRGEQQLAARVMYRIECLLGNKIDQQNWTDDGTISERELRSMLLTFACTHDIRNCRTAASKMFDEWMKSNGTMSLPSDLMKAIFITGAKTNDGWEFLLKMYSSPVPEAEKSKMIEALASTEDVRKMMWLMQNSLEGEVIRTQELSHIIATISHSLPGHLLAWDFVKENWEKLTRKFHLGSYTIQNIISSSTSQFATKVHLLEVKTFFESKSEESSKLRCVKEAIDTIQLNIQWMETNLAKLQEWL

[6] = target: T2, AT4 receptor (Ovis aries, UniProt A0ACI6PQ17); assay: Competition for [125I]LVV-haemorphin-7 binding to sheep cerebellar cortical membranes; conditions: read-out: IC50 for competing for 125I-LVV-haemorphin-7 binding
[7] = target: T2, AT4 receptor; assay: Competition for [125I]Ang IV binding to sheep cerebellar cortical membranes
[8] = target: Ang IV binding site (AT4 receptor) (Homo sapiens, UniProt Q9UIQ6); conditions: literature; cited from earlier work
[9] = test system: scopolamine-induced amnesia; conditions: rat, in vivo
[10] = test system: scopolamine-induced amnesia
[11] = 10^−8 M Ang II, test substance 1 μM
[12] = 10^−8 M Ang IV, test substance 1 μM

T2 sequence (A0ACI6PQ17 1-1050): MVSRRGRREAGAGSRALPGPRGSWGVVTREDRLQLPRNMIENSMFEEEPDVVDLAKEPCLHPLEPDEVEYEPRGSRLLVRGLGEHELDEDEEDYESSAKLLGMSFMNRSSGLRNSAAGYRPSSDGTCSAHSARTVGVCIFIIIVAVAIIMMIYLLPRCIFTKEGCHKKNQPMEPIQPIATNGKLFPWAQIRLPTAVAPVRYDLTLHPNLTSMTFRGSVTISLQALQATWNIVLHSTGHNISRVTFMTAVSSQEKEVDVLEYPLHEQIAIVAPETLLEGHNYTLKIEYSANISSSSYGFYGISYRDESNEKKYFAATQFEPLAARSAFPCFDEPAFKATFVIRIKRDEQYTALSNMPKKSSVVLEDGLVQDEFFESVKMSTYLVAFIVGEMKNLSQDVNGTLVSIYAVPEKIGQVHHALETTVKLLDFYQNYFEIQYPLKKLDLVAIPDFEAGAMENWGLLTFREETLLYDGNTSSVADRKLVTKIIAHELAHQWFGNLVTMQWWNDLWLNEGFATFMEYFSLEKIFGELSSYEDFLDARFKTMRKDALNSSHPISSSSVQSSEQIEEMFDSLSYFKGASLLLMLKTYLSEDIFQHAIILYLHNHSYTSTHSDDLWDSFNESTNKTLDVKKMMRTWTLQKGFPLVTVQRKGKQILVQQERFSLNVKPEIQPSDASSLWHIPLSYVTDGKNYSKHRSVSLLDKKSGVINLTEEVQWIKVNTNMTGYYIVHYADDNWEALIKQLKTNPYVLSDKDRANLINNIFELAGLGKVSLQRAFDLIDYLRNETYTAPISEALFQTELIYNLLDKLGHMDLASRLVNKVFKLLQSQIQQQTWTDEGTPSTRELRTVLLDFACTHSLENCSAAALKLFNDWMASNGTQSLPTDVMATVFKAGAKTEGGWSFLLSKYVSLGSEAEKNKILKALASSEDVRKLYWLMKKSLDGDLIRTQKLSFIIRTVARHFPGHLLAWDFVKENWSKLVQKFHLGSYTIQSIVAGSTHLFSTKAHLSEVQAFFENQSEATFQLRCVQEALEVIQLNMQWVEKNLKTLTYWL
Ang IV binding site (AT4 receptor), sequence (Q9UIQ6 whole entry): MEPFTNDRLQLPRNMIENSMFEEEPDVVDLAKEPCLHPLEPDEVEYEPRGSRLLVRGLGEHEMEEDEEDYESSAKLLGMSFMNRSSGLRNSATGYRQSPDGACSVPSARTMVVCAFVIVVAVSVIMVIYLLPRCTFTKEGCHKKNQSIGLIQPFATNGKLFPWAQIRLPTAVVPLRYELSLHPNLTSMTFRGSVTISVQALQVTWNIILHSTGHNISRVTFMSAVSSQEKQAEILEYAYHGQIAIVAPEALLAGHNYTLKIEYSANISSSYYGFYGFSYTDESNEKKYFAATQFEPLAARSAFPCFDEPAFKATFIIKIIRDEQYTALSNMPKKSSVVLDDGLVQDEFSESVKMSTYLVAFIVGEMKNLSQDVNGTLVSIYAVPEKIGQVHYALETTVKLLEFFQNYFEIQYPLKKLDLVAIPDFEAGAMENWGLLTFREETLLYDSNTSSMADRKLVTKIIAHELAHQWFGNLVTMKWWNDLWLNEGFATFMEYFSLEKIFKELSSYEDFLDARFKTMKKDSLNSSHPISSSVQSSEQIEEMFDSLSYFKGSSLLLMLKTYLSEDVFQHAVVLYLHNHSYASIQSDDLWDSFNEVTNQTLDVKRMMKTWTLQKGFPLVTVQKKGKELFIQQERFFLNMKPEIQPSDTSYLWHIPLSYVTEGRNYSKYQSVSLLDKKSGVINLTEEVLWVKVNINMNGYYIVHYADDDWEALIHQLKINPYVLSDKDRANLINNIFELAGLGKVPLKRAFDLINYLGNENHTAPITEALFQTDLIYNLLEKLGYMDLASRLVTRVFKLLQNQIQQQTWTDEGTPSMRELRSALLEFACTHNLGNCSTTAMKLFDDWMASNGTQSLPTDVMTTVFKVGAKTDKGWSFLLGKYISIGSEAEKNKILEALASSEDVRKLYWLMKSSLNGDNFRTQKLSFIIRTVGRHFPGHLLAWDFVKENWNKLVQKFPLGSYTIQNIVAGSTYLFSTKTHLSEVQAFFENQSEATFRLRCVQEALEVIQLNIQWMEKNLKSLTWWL

Question: With `CC[C@H](C)[C@H](NC(=O)[C@H](Cc1ccc(O)cc1)NC(=O)[C@@H](NC(=O)[C@@H](N)CCCNC(=N)N)C(C)C)C(=O)N[C@@H](Cc1c[nH]cn1)C(=O)N1CCC[C@H]1C(=O)N[C@@H](Cc1ccccc1)C(=O)O` [Ang III] as the compound, how does the IC50 [1] read?
Answer: Its IC50 is 80 nM.

Question: Which results are given for `CC[C@H](C)[C@H](NC(=O)[C@H](Cc1ccc(O)cc1)NC(=O)[C@@H](NC(=O)[C@H](CCCNC(=N)N)NC(=O)[C@@H](N)CC(=O)O)C(C)C)C(=O)N[C@@H](Cc1c[nH]cn1)C(=O)N1CCC[C@H]1C(=O)N[C@@H](Cc1ccccc1)C(=O)O` [Ang II]?
Answer: IC50 [1]: 730 nM; Inhibition of neurite outgrowth [2]: 25%

Question: For `CC[C@H](C)[C@H](NC(=O)[C@H](Cc1ccc(O)cc1)NC(=O)[C@@H](N)C(C)C)C(=O)N[C@@H](Cc1cnc[nH]1)C(=O)N1CCC[C@H]1C(=O)N[C@@H](Cc1ccccc1)C(=O)O` [Ang IV, NH2-Val Tyr Ile His Pro Phe-COOH], which “Displacement of [125I]LVV-haemorphin-7 and [125I]Ang IV binding” value ([3]; 1 μM unlabelled ligand, sheep hindbrain sections) is on record?
Answer: The value was “displaced”.

Question: What about the “Concentration of maximal effect on neurite outgrowth” value [2] of the same compound?
Answer: The value was 10^−9 M.

Question: And the “Threshold concentration for inhibition of neurite outgrowth” value [2]?
Answer: The value was 10^−11 M.

Question: And the IC50 ([2]; read-out: Half maximal inhibition of neurite outgrowth)?
Answer: Its IC50 is 0.1 nM.

Question: What about the “Effect on memory in a passive avoidance task” value [4] of the same compound?
Answer: The value was “improve memory retention and retrieval”.

Question: What does the source list for `CC[C@H](C)[C@H](NC(=O)[C@@H]1CCCN1C(=O)[C@H](Cc1c[nH]cn1)NC(=O)[C@H](CCCCNC(=O)[C@H](CCCNC(=N)N)NC(=O)OCc1ccccc1)NC(=O)[C@H](Cc1ccc(O)cc1)NC(=O)c1cccnc1)C(=O)O` [CGP 42112] (Nicotinoyl-YK([Arg-Cbz])HPI-OH; N-terminus and C-terminus assumed)?
Answer: Concentration at which only 50% of the [125I]Ang IV sites were competed for [5]: 0.5 µM; Effect on the inhibition of neurite outgrowth by Ang II [2]: ineffective; Effect on the inhibition of neurite outgrowth by Ang IV [2]: no effect

Question: Which “Effect on the inhibition of neurite outgrowth by Ang IV” value (“Effect on the inhibition … by Ang IV” below) [2] does the source give for `CCCC[C@H](N)C(=O)N[C@@H](Cc1ccc(O)cc1)C(=O)N[C@H](C(N)=O)[C@@H](C)CC` [Nle^1-Y-I-amide] (H-[Nle]-Tyr-Ile-NH2; N-terminus assumed) here?
Answer: Its value is “totally reversed”.

Question: For `Cc1cc(Cn2cnc3c2C[C@@H](C(=O)O)N(C(=O)C(c2ccccc2)c2ccccc2)C3)ccc1N(C)C` [PD 123319], which “Competition for [125I]Ang IV binding” value [1] is on record?
Answer: Its value is “inactive”.

Question: What about the “Inhibition of [125I]Ang IV binding” value ([5]; at concentrations up to 10 μM) of the same compound?
Answer: Its value is “inactive”.

Question: What about the IC50 ([6]; sheep cerebellar cortical membranes) of the same compound?
Answer: Its IC50 is 46000 nM.

Question: And the “Competition for [125I]Ang IV binding” value ([7]; at 10 μM)?
Answer: The value was “inactive”.

Question: What about the “Effect on the inhibition of neurite outgrowth by Ang II” value (shortened to “Effect on the inhibition … by Ang II”) [2, 11] of the same compound?
Answer: The value was “ineffective”.

Question: And the “Effect on the inhibition … by Ang IV” value [2, 12]?
Answer: Its value is “no effect”.

Question: What about the “Affinity of the Ang IV site for the ligand” value (from here on “Affinity of the Ang IV site”) [8] of the same compound?
Answer: Its value is “low to very low affinity”.

Question: For `CC[C@H](C)[C@H](NC(=O)[C@@H]1CCCN1C(=O)[C@H](Cc1c[nH]cn1)NC(=O)[C@@H](NC(=O)[C@H](Cc1ccc(O)cc1)NC(=O)[C@@H](NC(=O)[C@H](CCCNC(=N)N)NC(=O)CNC)C(C)C)[C@@H](C)CC)C(=O)O` [[Sar^1Ile^8]Ang II], which “Concentration at which only 50% of the [125I]Ang IV sites were competed for” value [5] is on record?
Answer: The value was 10 µM.

Question: And the “Effect on the inhibition … by Ang II” value [2]?
Answer: The value was “ineffective”.

Question: And the “Effect on the inhibition … by Ang IV” value [2]?
Answer: The value was “no effect”.

Question: What about the “Affinity of the Ang IV site” value [8] of the same compound?
Answer: The value was “low to very low affinity”.

Question: With `CCCCc1nc(Cl)c(CO)n1Cc1ccc(-c2ccccc2-c2nn[nH]n2)cc1` [losartan] as the compound, how does the “Competition for [125I]Ang IV binding” value [1] read?
Answer: Its value is “inactive”.

Question: What about the “Effect on the inhibition … by Ang II” value [2, 11] of the same compound?
Answer: Its value is “ineffective”.

Question: What about the “Effect on the inhibition … by Ang IV” value [2, 12] of the same compound?
Answer: Its value is “no effect”.

Question: And the “Affinity of the Ang IV site” value [8]?
Answer: The value was “low to very low affinity”.

Question: Which “Latency in finding the platform after amnesic agent” value [9] does the source give for `CN1[C@@H]2C[C@@H](OC(=O)[C@H](CO)c3ccccc3)C[C@H]1[C@@H]1O[C@@H]12` [scopolamine] here?
Answer: Its value is “significantly increased latencies”.

Question: And the “Passive avoidance performance after amnesic agent” value ([10]; 70 nmol intracerebroventricularly followed by saline)?
Answer: The value was “learning and memory deficits”.

Question: Which results are given for LVVYPWTQRF [LVV-haemorphin-7]?
Answer: IC50 [6]: 5.6 nM; IC50 ([7]; read-out: IC50 for competing for [125I]Ang IV binding): 2 nM; Displacement of [125I]LVV-haemorphin-7 and [125I]Ang IV binding [3]: displaced; Effect on scopolamine-induced latency in finding the platform [9]: totally reversed; Effect on scopolamine-induced amnesia (latency to enter dark compartment) ([10]; 70 nmol scopolamine followed by 1.0 nmol peptide, intracerebroventricularly): completely reversed; Passive avoidance performance, substance alone ([10]; saline followed by 1.0 nmol, intracerebroventricularly): performed worse than the scopolamine-treated rats
